From article PMC3807862 (Journal of medicinal chemistry, 2013)

What was measured:
human plasma thrombin = human plasma thrombin (Homo sapiens, UniProt P00734); assay: Thrombin inhibition; format: biochemical
human urine urokinase = human urine urokinase (Homo sapiens, UniProt P00749); assay: Urokinase inhibition; format: biochemical
[1] = Spontaneous hydrolysis in aqueous buffer; format: physicochemical; conditions: 20 μM
human plasma kallikrein = human plasma kallikrein (Homo sapiens, UniProt P03952); assay: Kallikrein inhibition; format: biochemical
Chain of human plasma kallikrein (P03952 20-638): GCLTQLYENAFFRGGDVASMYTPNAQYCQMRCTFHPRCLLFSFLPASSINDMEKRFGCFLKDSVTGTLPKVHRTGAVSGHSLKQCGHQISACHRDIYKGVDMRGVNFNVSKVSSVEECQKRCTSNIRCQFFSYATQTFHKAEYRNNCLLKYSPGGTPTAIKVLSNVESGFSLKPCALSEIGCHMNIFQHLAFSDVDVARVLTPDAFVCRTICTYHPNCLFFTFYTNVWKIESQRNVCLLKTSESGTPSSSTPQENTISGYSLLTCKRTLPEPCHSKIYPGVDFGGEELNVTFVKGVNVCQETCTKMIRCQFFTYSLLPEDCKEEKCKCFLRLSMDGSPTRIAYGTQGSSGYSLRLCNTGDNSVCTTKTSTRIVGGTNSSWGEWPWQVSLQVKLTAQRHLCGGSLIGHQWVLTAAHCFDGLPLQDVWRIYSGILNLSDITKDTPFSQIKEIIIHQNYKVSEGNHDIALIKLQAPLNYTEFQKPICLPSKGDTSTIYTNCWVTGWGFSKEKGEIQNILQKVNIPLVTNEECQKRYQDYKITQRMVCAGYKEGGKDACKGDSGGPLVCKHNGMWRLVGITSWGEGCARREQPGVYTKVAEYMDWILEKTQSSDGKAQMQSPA

HNE = target: T1, HNE (Homo sapiens, UniProt P08246); assay: HNE inhibition over time; format: biochemical; conditions: for time to recovery of HNE activity after treatment: up to 5 μM compound; for period of maximal HNE inhibition (during the first x h): 5 μM compound
T1 sequence (P08246 30-267): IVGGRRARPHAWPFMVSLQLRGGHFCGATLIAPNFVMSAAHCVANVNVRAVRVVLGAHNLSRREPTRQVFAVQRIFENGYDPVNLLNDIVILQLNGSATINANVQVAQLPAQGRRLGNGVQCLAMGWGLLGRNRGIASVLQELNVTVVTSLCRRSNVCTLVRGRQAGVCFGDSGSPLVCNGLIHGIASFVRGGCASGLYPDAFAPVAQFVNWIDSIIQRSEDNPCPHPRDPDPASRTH

[2] = target: T2, Human neutrophil elastase (HNE) (Homo sapiens, UniProt P08246); assay: HNE inhibition assay; format: biochemical
T2 sequence (P08246 30-267): T1 sequence (P08246 30-267)

[3] = system: human pancreas chymotrypsin; assay: Chymotrypsin inhibition; format: biochemical

Cc1cccc(C(=O)n2nc(C#N)c3ccccc32)c1 [Compound 5b, 1-(3-Methylbenzoyl)-1H-indazole-3-carbonitrile]
thrombin inhibition (in words) (human plasma thrombin): at micromolar concentrations | urokinase inhibition (in words) (human urine urokinase): at micromolar concentrations | time after which compound was hydrolyzed almost completely [1]: 35 min

COC(=O)c1nn(C(=O)c2ccccc2)c2ccc([N+](=O)[O-])cc12 [Compound 14a, 1-Benzoyl-5-nitro-1H-indazole-3-carboxylic Acid Methyl Ester]
kallikrein inhibition (in words) (human plasma kallikrein): inhibited kallikrein | time to recovery of HNE activity after treatment (HNE): 1 to 2 h

COC(=O)c1nn(C(=O)c2cccc(C)c2)c2ccc([N+](=O)[O-])cc12 [Compound 14b, 1-(3-Methylbenzoyl)-5-nitro-1H-indazole-3-carboxylic Acid Methyl Ester]
period of maximal HNE inhibition (during the first x h) (HNE): 4 h

CCOC(=O)c1nn(C(=O)c2ccsc2)c2ccc([N+](=O)[O-])cc12 [Compound 14h, 5-Nitro-1-(thiophene-3-carbonyl)-1H-indazole-3-carboxylic Acid Ethyl Ester]
time to recovery of HNE activity after treatment (HNE): 1 to 2 h

COC(=O)c1nn(C(=O)c2cccc(C)c2)c2cc([N+](=O)[O-])ccc12 [Compound 15, 1-(3-Methylbenzoyl)-6-nitro-1H-indazole-3-carboxylic Acid Methyl Ester]
period of maximal HNE inhibition (during the first x h) (HNE): 4 h

COC(=O)c1nn(C(=O)c2cccc(C)c2)c2c([N+](=O)[O-])cccc12 [Compound 16, 1-(3-Methylbenzoyl)-7-nitro-1H-indazole-3-carboxylic Acid Methyl Ester]
HNE inhibitory activity (in words) [2]: inactive

CCOC(=O)c1nn(C(=O)c2cccc(C)c2)c2ccc(NC(C)=O)cc12 [Compound 20a, 5-Acetylamino-1-(3-methylbenzoyl)-1H-indazole-3-carboxylic Acid Ethyl Ester]
period of maximal HNE inhibition (during the first x h) (HNE): 4 h

CCOC(=O)c1nn(C(=O)c2cccc(C)c2)c2ccc(NC(=O)C3CC3)cc12 [Compound 20f, 5-(Cyclopropanecarbonylamino)-1-(3-methylbenzoyl)-1H-indazole-3-carboxylic Acid Ethyl Ester]
urokinase inhibition (in words) (human urine urokinase): no inhibitory activity | period of maximal HNE inhibition (during the first x h) (HNE): 5 h | IC50 [2]: ~10 nM | chymotrypsin inhibition (in words) [3]: lowest activity for this enzyme

CCOC(=O)c1nn(C(=O)c2ccccc2)c2ccc(OC)cc12 [Compound 31d, 1-Benzoyl-5-methoxy-1H-indazole-3-carboxylic Acid Ethyl Ester]
increase of HNE inhibitory activity compared to the reference compounds A and F [2]: 2-3 fold

CCOC(=O)c1nn(C(=O)c2cccc(C)c2)c2ccc(OC(F)(F)F)cc12 [Compound 31g, 1-(3-Methylbenzoyl)-5-trifluoromethoxy-1H-indazole-3-carboxylic Acid Ethyl Ester]
increase of HNE inhibitory activity compared to the reference compounds A and F [2]: 2-3 fold
